Laboratory results published in the supplement of paper PMC10307832.

Tests used:
Assay in all cases: relative viability (nuclei count vs DMSO), 5 days (fraction); higher = more cells survive
17-AAG + Navitoclax = compound: C=CCNC1=C2C[C@@H](C)C[C@H](OC)[C@H](O)[C@@H](C)/C=C(\C)[C@H](OC(N)=O)[C@@H](OC)/C=C\C=C(/C)C(=O)NC(=CC1=O)C2=O [17-AAG] + CC1(C)CCC(c2ccc(Cl)cc2)=C(CN2CCN(c3ccc(C(=O)NS(=O)(=O)c4ccc(N[C@H](CCN5CCOCC5)CSc5ccccc5)c(S(=O)(=O)C(F)(F)F)c4)cc3)CC2)C1 [Navitoclax] (partner 0.5 µM)
How it was run: (§1)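 Relative viability divides the nuclei count in treated wells by that in vehicle wells. Lung cancer cell lines were seeded in 1536-well plates, dosed by pin tool the next day, and fixed and stained after 5 days in one step with final 0.05% Triton X-100, 1% formaldehyde and 1 ug/ml Hoechst. Dosing was a single drug or a fixed anchor-drug dose plus five library-drug doses (not always all listed) in √10 steps, and values are medians of duplicate plates imaged at 4×.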

17-AAG + Linsitinib = compound: C=CCNC1=C2C[C@@H](C)C[C@H](OC)[C@H](O)[C@@H](C)/C=C(\C)[C@H](OC(N)=O)[C@@H](OC)/C=C\C=C(/C)C(=O)NC(=CC1=O)C2=O [17-AAG] + C[C@]1(O)C[C@@H](c2nc(-c3ccc4ccc(-c5ccccc5)nc4c3)c3c(N)nccn32)C1 [Linsitinib] (partner 1 µM)
How it was run: as §1

17-AAG + Alpelisib = compound: C=CCNC1=C2C[C@@H](C)C[C@H](OC)[C@H](O)[C@@H](C)/C=C(\C)[C@H](OC(N)=O)[C@@H](OC)/C=C\C=C(/C)C(=O)NC(=CC1=O)C2=O [17-AAG] + Cc1nc(NC(=O)N2CCC[C@H]2C(N)=O)sc1-c1ccnc(C(C)(C)C(F)(F)F)c1 [Alpelisib] (partner 2 µM)
How it was run: as §1

17-AAG + Vorinostat = compound: C=CCNC1=C2C[C@@H](C)C[C@H](OC)[C@H](O)[C@@H](C)/C=C(\C)[C@H](OC(N)=O)[C@@H](OC)/C=C\C=C(/C)C(=O)NC(=CC1=O)C2=O [17-AAG] + O=C(CCCCCCC(=O)Nc1ccccc1)NO [Vorinostat] (partner 1 µM)
How it was run: as §1

Row | Cell Line | relative viability (17-AAG + Navitoclax; first compound 0.00128 µM) | relative viability (17-AAG + Navitoclax; first compound 0.004048 µM) | relative viability (17-AAG + Navitoclax; first compound 0.0128 µM) | relative viability (17-AAG + Navitoclax; first compound 0.04048 µM) | relative viability (17-AAG + Navitoclax; first compound 0.128 µM) | relative viability (17-AAG + Linsitinib; first compound 0.00128 µM) | relative viability (17-AAG + Linsitinib; first compound 0.004048 µM) | relative viability (17-AAG + Linsitinib; first compound 0.0128 µM) | relative viability (17-AAG + Linsitinib; first compound 0.04048 µM) | relative viability (17-AAG + Linsitinib; first compound 0.128 µM) | relative viability (17-AAG + Alpelisib; first compound 0.00128 µM) | relative viability (17-AAG + Alpelisib; first compound 0.004048 µM) | relative viability (17-AAG + Alpelisib; first compound 0.0128 µM) | relative viability (17-AAG + Alpelisib; first compound 0.04048 µM) | relative viability (17-AAG + Alpelisib; first compound 0.128 µM) | relative viability (17-AAG + Vorinostat; first compound 0.00128 µM) | relative viability (17-AAG + Vorinostat; first compound 0.004048 µM) | relative viability (17-AAG + Vorinostat; first compound 0.0128 µM) | relative viability (17-AAG + Vorinostat; first compound 0.04048 µM) | relative viability (17-AAG + Vorinostat; first compound 0.128 µM)
1 | NCI-H1975 | 1.23 | 0.928 | 0.453 | 0.186 | 0.145 | 1.03 | 0.725 | 0.31 | 0.164 | 0.139 | 0.583 | 0.365 | 0.147 | 0.139 | 0.124 | 0.716 | 0.597 | 0.311 | 0.157 | 0.152
2 | LK-2 | 1.11 | 0.97 | 0.619 | 0.285 | 0.171 | 0.575 | 0.463 | 0.615 | 0.479 | 0.136 | 1.13 | 0.998 | 1.28 | 0.217 | 0.233 | 0.323 | 0.445 | 0.178 | 0.174 | 0.236
3 | NCI-H727 | 0.426 | 0.455 | 0.214 | 0.206 | 0.226 | 0.312 | 0.252 | 0.176 | 0.179 | 0.22 | 0.519 | 0.63 | 0.358 | 0.182 | 0.192 | 1.36 | 1.05 | 1.23 | 1.32 | 0.511
4 | NCI-H2342 |  |  |  |  |  |  |  |  |  |  |  |  |  |  |  | 0.651 | 0.86 | 0.715 | 0.668 | 0.409
5 | HCC-366 | 1.06 | 1.02 | 0.358 | 0.0314 | 0.0217 | 0.52 | 0.659 | 0.0425 | 0.0221 | 0.0229 | 0.565 | 0.333 | 0.0236 | 0.0226 | 0.0154 | 0.305 | 0.374 | 0.149 | 0.0397 | 0.0268
6 | HOP-62 | 1.16 | 1.01 | 1.05 | 0.843 | 0.151 | 0.783 | 0.917 | 1.08 | 0.819 | 0.455 | 0.907 | 1.04 | 1.1 | 0.939 | 0.38 | 0.687 | 0.563 | 0.452 | 0.141 | 0.083
7 | NCI-H650 |  |  |  |  |  | 0.865 | 0.908 | 0.788 | 0.314 | 0.177 | 1.19 | 1.09 | 1.26 | 0.855 | 0.326 | 0.443 | 0.497 | 0.477 | 0.32 | 0.193
8 | EBC-1 | 0.514 | 0.203 | 0.157 | 0.182 | 0.126 | 0.851 | 0.579 | 0.162 | 0.139 | 0.12 | 0.828 | 0.197 | 0.186 | 0.159 | 0.168 |  |  |  |  | 
9 | NCI-H1648 |  |  |  |  |  |  |  |  |  |  |  |  |  |  |  |  | 0.433 | 0.362 | 0.538 | 0.243
10 | SW 900 |  |  |  |  |  |  |  |  |  |  |  |  |  |  |  | 0.51 | 0.547 | 0.23 | 0.138 | 0.131
11 | ABC-1 |  |  |  |  |  | 0.866 | 0.773 | 0.876 | 0.761 | 0.816 | 1.05 | 1.19 | 0.691 | 0.976 | 0.919 | 1.15 | 1.15 | 1.21 | 1.06 | 0.724
12 | NCI-H1792 | 0.592 | 0.675 | 0.523 | 0.477 | 0.115 | 0.481 | 0.619 | 0.449 | 0.391 | 0.372 | 0.713 | 0.64 | 0.594 | 0.441 | 0.306 |  |  |  |  | 
13 | NCI-H1563 |  |  |  |  |  | 1.17 | 0.952 | 0.668 | 0.623 | 0.622 | 0.964 | 0.853 | 0.616 | 0.591 | 0.514 |  |  |  |  | 
14 | NCI-H1299 | 1.04 | 1.01 | 1.07 | 0.952 | 0.755 | 0.999 | 0.922 | 0.919 | 0.894 | 0.714 | 1.04 | 1.05 | 1 | 0.94 | 0.729 |  |  |  |  | 
15 | ChaGo-K-1 | 0.949 | 1.11 | 0.897 | 0.441 | 0.273 |  |  |  |  |  |  |  |  |  |  | 0.749 | 0.776 | 0.691 | 0.49 | 0.214
16 | NCI-H2170 | 0.649 | 0.578 | 0.548 | 0.251 | 0.167 |  |  |  |  |  | 0.821 | 0.723 | 0.426 | 0.244 | 0.178 | 0.837 | 0.827 | 0.336 | 0.169 | 0.143
17 | NCI-H522 |  |  |  |  |  |  |  |  |  |  |  |  |  |  |  | 0.982 | 0.944 | 0.518 | 0.423 | 0.382
18 | A549 | 1.13 | 0.542 | 0.0729 | 0.0453 | 0.044 | 0.646 | 0.487 | 0.371 | 0.105 | 0.0473 | 0.777 | 0.189 | 0.0463 | 0.056 | 0.0402 |  |  |  |  | 
19 | NCI-H358 |  |  |  |  |  | 0.817 | 0.892 | 0.148 | 0.161 | 0.131 | 0.838 | 0.556 | 0.126 | 0.134 | 0.126 | 0.703 | 0.439 | 0.113 | 0.0837 | 0.0628
20 | NCI-H661 |  |  |  |  |  | 0.558 | 0.569 | 0.516 | 0.45 | 0.259 | 0.573 | 1 | 0.728 | 0.347 | 0.188 | 0.785 | 0.791 | 0.707 | 0.441 | 0.31
21 | LCLC-103H |  |  |  |  |  | 1.15 | 1.12 | 1.13 | 0.965 | 0.992 | 1.05 | 0.974 | 0.998 | 0.996 | 1.11 | 0.883 | 0.844 | 0.731 | 0.832 | 0.818
22 | NCI-H1650 | 1.19 | 0.782 | 0.407 | 0.181 | 0.171 |  |  |  |  |  |  |  |  |  |  | 0.371 | 0.376 | 0.232 | 0.152 | 0.138
23 | Calu-6 | 0.783 | 0.735 | 0.703 | 0.197 | 0.122 | 0.86 | 0.977 | 0.942 | 0.353 | 0.146 | 0.959 | 0.928 | 0.915 | 0.363 | 0.188 |  |  |  |  | 
